According to PubChem BioAssay AID192 (DTP/NCI, 2004):
Several values for one entry are separate records, joined by “and”; a condition that tells them apart may be missing. Equal entries are not always repeated. Toxic doses and inconclusive results are not listed.

Tested on: BDF1 mice, B16 melanoma ip, median survival T/C
Assay: NCI In Vivo Anticancer Drug Screen. Data for tumor model B16 Melanoma (intraperitoneal) in B6D2F1 (BDF1) mice
Settings: endpoint: median survival time, higher = longer survival
Method in brief: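 Values are ratios of treated (T) to vehicle-control (C) measurements of survival or tumor size in tumor-bearing mice.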

[1] = dose: 25.0 mg/kg/injection, schedule: Q01DX009 (ip), vehicle: saline
[2] = dose: 50.0 mg/kg/injection, schedule: Q01DX009 (ip), vehicle: saline
[3] = dose: 100.0 mg/kg/injection, schedule: Q04DX003 (ip), vehicle: saline
[4] = dose: 200.0 mg/kg/injection, schedule: Q01DX009 (ip), vehicle: Klucel (hydroxypropylcellulose) (HPC)
[5] = dose: 400.0 mg/kg/injection, schedule: Q01DX009 (ip), vehicle: Klucel (hydroxypropylcellulose) (HPC)
[6] = dose: 100.0 mg/kg/injection, schedule: Q01DX009 (ip), vehicle: Klucel (hydroxypropylcellulose) (HPC)

## CS(=O)(=O)OCCN(CCOS(C)(=O)=O)c1ccc(N=O)cc1
dose: 0.1 mg/kg/injection, schedule: Q01DX009 (ip), vehicle: saline
  T/C: 150 % of control
dose: 0.2 mg/kg/injection, schedule: Q01DX009 (ip), vehicle: saline
  T/C: 184 % of control and 204 % of control
dose: 0.3 mg/kg/injection, schedule: Q01DX009 (ip), vehicle: saline
  T/C: 175 % of control

## NC(CSCCc1ccccn1)C(=O)O (centres undefined)
[1]
  T/C: 100 % of control
[2]
  T/C: 100 % of control
dose: 100.0 mg/kg/injection, schedule: Q01DX009 (ip), vehicle: saline
  T/C: 110 % of control
[3]
  T/C: 104 % of control
dose: 200.0 mg/kg/injection, schedule: Q04DX003 (ip), vehicle: saline
  T/C: 104 % of control
dose: 400.0 mg/kg/injection, schedule: Q04DX003 (ip), vehicle: saline
  T/C: 104 % of control

## CC[C@H](C)[C@H](NC(=O)OC(C)(C)C)C(=O)ON1C(=O)CCC1=O
dose: 50.0 mg/kg/injection, schedule: Q01DX009 (ip), vehicle: saline with Tween-80
  T/C: 92 % of control
dose: 100.0 mg/kg/injection, schedule: Q01DX009 (ip), vehicle: saline with Tween-80
  T/C: 97 % of control
dose: 200.0 mg/kg/injection, schedule: Q01DX009 (ip), vehicle: saline with Tween-80
  T/C: 90 % of control

## CCOC(=O)NC(C(=O)OC)C(=O)OC
dose: 100.0 mg/kg/injection, schedule: Q04DX003 (ip), vehicle: Klucel (hydroxypropylcellulose) (HPC)
  T/C: 95 % of control
[4]
  T/C: 93 % of control
dose: 200.0 mg/kg/injection, schedule: Q04DX003 (ip), vehicle: Klucel (hydroxypropylcellulose) (HPC)
  T/C: 97 % of control
[5]
  T/C: 87 % of control
dose: 400.0 mg/kg/injection, schedule: Q04DX003 (ip), vehicle: Klucel (hydroxypropylcellulose) (HPC)
  T/C: 90 % of control

## O=C(O)C(CSC(c1ccccc1)(c1ccccc1)c1ccccc1)N=Cc1cccs1 (centres undefined)
dose: 12.5 mg/kg/injection, schedule: Q01DX009 (ip), vehicle: saline
  T/C: 117 % of control
[1]
  T/C: 122 % of control

## CC[P+](CC)(CC)CCCCI
[2]
  T/C: 93 % of control

## O=C(COc1ccccc1)CC(O)(C(F)(F)F)C(F)(F)F
dose: 100.0 mg/kg/injection, schedule: Q04DX003 (ip), vehicle: saline with Tween-80
  T/C: 100 % of control
dose: 200.0 mg/kg/injection, schedule: Q04DX003 (ip), vehicle: saline with Tween-80
  T/C: 92 % of control
dose: 400.0 mg/kg/injection, schedule: Q04DX003 (ip), vehicle: saline with Tween-80
  T/C: 97 % of control

## CCCC(OC(C)=O)C(Cl)(Cl)Cl (centres undefined)
dose: 25.0 mg/kg/injection, schedule: Q01DX009 (ip), vehicle: Klucel (hydroxypropylcellulose) (HPC)
  T/C: 90 % of control
dose: 50.0 mg/kg/injection, schedule: Q01DX009 (ip), vehicle: Klucel (hydroxypropylcellulose) (HPC)
  T/C: 100 % of control

## COCc1cc(C(C)(C)C)c(O)c(C(C)(C)C)c1
[6]
  T/C: 90 % of control
[4]
  T/C: 92 % of control
[5]
  T/C: 95 % of control

## C=CCOCC(O)CN(C)CCCC (centres undefined)
dose: 50.0 mg/kg/injection, schedule: Q04DX003 (ip), vehicle: saline
  T/C: 108 % of control
[3]
  T/C: 108 % of control

## CC(=O)[O][Pb]([CH2]C(C)C)([CH2]C(C)C)[CH2]C(C)C
dose: 0.09 mg/kg/injection, schedule: Q01DX009 (ip), vehicle: Klucel (hydroxypropylcellulose) (HPC)
  T/C: 94 % of control
dose: 0.19 mg/kg/injection, schedule: Q01DX009 (ip), vehicle: Klucel (hydroxypropylcellulose) (HPC)
  T/C: 98 % of control
dose: 0.38 mg/kg/injection, schedule: Q01DX009 (ip), vehicle: Klucel (hydroxypropylcellulose) (HPC)
  T/C: 93 % of control
dose: 0.75 mg/kg/injection, schedule: Q01DX009 (ip), vehicle: Klucel (hydroxypropylcellulose) (HPC)
  T/C: 88 % of control and 98 % of control

## C[C@]12C=CC(=O)C=C1CC[C@@H]1[C@@H]2[C@@H](O)C[C@@]2(C)[C@H]1CC[C@]2(O)C(=O)CO
dose: 10.0 mg/kg/injection, schedule: Q02DX009 (ip), vehicle: Klucel (hydroxypropylcellulose) (HPC)
  T/C: 91 % of control
dose: 20.0 mg/kg/injection, schedule: Q02DX009 (ip), vehicle: Klucel (hydroxypropylcellulose) (HPC)
  T/C: 100 % of control
dose: 40.0 mg/kg/injection, schedule: Q02DX009 (ip), vehicle: Klucel (hydroxypropylcellulose) (HPC)
  T/C: 96 % of control
dose: 80.0 mg/kg/injection, schedule: Q02DX009 (ip), vehicle: Klucel (hydroxypropylcellulose) (HPC)
  T/C: 103 % of control
dose: 160.0 mg/kg/injection, schedule: Q02DX009 (ip), vehicle: Klucel (hydroxypropylcellulose) (HPC)
  T/C: 109 % of control and 115 % of control
dose: 320.0 mg/kg/injection, schedule: Q02DX009 (ip), vehicle: Klucel (hydroxypropylcellulose) (HPC)
  T/C: 92 % of control

## C=CCN(C(=O)OCC)c1ccccc1
[6]
  T/C: 100 % of control
[4]
  T/C: 97 % of control

## CCCCN(CCCC)CCC(=O)c1ccc(OC)c2ccccc12
dose: 12.5 mg/kg/injection, schedule: Q01DX009 (ip), vehicle: saline with Tween-80
  T/C: 99 % of control
dose: 25.0 mg/kg/injection, schedule: Q01DX009 (ip), vehicle: saline with Tween-80
  T/C: 88 % of control
